Consider eight compounds from PubChem BioAssay (NCI).

Where “and” joins values, the source holds several entries; their conditions need not be identical. Equal values may be shown once.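 96-well plates; 48 h exposure; 5 concentrations. Endpoints by linear interpolation between flanking doses. Not reached: highest tested concentration assigned. The concentration for 50% growth inhibition is given as GI50. At the TGI there is no net growth.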

Some test systems named below: NCI-H522 lung; COLO 205 colon; NCI/ADR-RES ovarian; EKVX NSCLC; SNB-75 CNS; M14 melanoma; K-562 leukemia; BT-549 breast; LOX IMVI melanoma; OVCAR-8 ovarian.
Holding throughout (test): DTP human tumour cell line panel, 48 h

For `C[N+](C)(CCCCCC[N+](C)(C)CCCN1C(=O)c2cc3ccccc3cc2C1=O)CCCN1C(=O)c2cc3ccccc3cc2C1=O`, the GI50 in the assay on NCI-H522 lung, with COLO 205 colon, in the assay with NCI/ADR-RES ovarian, in the assay with EKVX NSCLC, in the assay with SNB-75 CNS and with M14 melanoma was > 37.5 µM in each case. For the same compound, the GI50 with K-562 leukemia, with BT-549 breast, in the assay on LOX IMVI melanoma and in the assay with OVCAR-8 ovarian was > 37.5 µM each time. Further, the TGI with NCI-H522 lung, in the assay on COLO 205 colon, in the assay on NCI/ADR-RES ovarian, with EKVX NSCLC, in the assay with SNB-75 CNS and in the assay with M14 melanoma was > 37.5 µM in each case. Moreover, the TGI with K-562 leukemia, in the assay on BT-549 breast, in the assay on LOX IMVI melanoma and in the assay with OVCAR-8 ovarian was > 37.5 µM each time.

As to `CC(C)=CCC1=C(OCC(=O)O)C(=O)c2ccccc2C1=O`, the TGI with NCI-H522 lung is 57.4 µM; with COLO 205 colon it was > 100 µM; with NCI/ADR-RES ovarian, > 100 µM; in the assay on EKVX NSCLC it was > 100 µM; in the assay with SNB-75 CNS, 64.7 µM; in the assay with M14 melanoma, > 100 µM. In addition, the TGI with K-562 leukemia, with BT-549 breast, in the assay on LOX IMVI melanoma and in the assay with OVCAR-8 ovarian was > 100 µM throughout.

`CC1(C)CCCC(C)(C2CCC3(C)C2C(O)CC2C4(C)CCC(O)C(C)(C)C4C(O)CC23C)O1` (configuration not stated): the TGI with NCI-H522 lung stood at 29.8 µM; in the assay on COLO 205 colon, 24.4 µM; in the assay on NCI/ADR-RES ovarian, 37.4 µM; with EKVX NSCLC, 32.5 µM; with SNB-75 CNS, 24.6 µM; with M14 melanoma it was 31.7 µM. For the same compound, the TGI with K-562 leukemia is 25.1 µM; in the assay on BT-549 breast, 28.5 µM; in the assay on LOX IMVI melanoma, > 100 µM; in the assay on OVCAR-8 ovarian it was 41.9 µM.

Consider `C=C1CCC2C3(C)COC(c4c(OC)cccc4OC)OC3CCC2(C)C1C/C=C1/C(=O)OCC1O` (configuration not stated), for which the GI50 in the assay on NCI-H522 lung was 2.02 µM; with COLO 205 colon it was 2.23 µM; in the assay with NCI/ADR-RES ovarian, 2.65 µM; with EKVX NSCLC it was 8.47 µM; in the assay on SNB-75 CNS it was 2.55 µM; with M14 melanoma, 2.96 µM. Besides, the GI50 is 1.41 µM in the assay with K-562 leukemia, 2.25 µM in the assay on BT-549 breast, 1.63 µM in the assay on LOX IMVI melanoma and 3.09 µM in the assay on OVCAR-8 ovarian. The TGI in the assay with NCI-H522 lung was 5.01 µM; in the assay with COLO 205 colon it was 4.95 µM; in the assay with NCI/ADR-RES ovarian, 7.03 µM; in the assay with EKVX NSCLC it was 27.3 µM; in the assay on SNB-75 CNS, 14.5 µM; in the assay with M14 melanoma, 9.01 µM. For the same compound, the TGI in the assay with K-562 leukemia came out at 6.28 µM; with BT-549 breast, 5.64 µM; in the assay on LOX IMVI melanoma, 3.25 µM; in the assay with OVCAR-8 ovarian it was 11.5 µM.

For the compound `O=C(N=Nc1c(O)[nH]c2ccccc12)c1oc2ccccc2c1CN1CCN(c2ccccc2)CC1`, the GI50 in the assay with NCI-H522 lung was 3.58 µM; in the assay with COLO 205 colon it was 2.77 µM; in the assay with NCI/ADR-RES ovarian, 1.29 µM; in the assay with EKVX NSCLC, 1.91 µM; in the assay with SNB-75 CNS it was 1.04 µM; with M14 melanoma, 2.07 µM. The GI50 in the assay on K-562 leukemia was 1.98 µM; in the assay with BT-549 breast, 5.81 µM; in the assay on LOX IMVI melanoma, 2.04 µM; with OVCAR-8 ovarian it was 1.66 µM. Moreover, the TGI in the assay on NCI-H522 lung is 19.3 µM; in the assay with COLO 205 colon it was > 50 µM; in the assay on NCI/ADR-RES ovarian, 4.68 µM; in the assay with EKVX NSCLC, 10.3 µM; in the assay with SNB-75 CNS, 4.48 µM; in the assay on M14 melanoma, 8.83 µM. Moreover, the TGI in the assay on K-562 leukemia is > 50 µM; with BT-549 breast, 21 µM; in the assay with LOX IMVI melanoma it was 7.84 µM; in the assay with OVCAR-8 ovarian it was 13.4 µM.

In the case of `CCC(C)[C@H](NC(=O)NC(=O)NC(=O)CI)C(=O)OC` (some centres not stated), the GI50 is 1.51 µM in the assay with NCI-H522 lung; 1.77 µM in the assay on COLO 205 colon; 21.2 µM in the assay on NCI/ADR-RES ovarian; 16.7 µM in the assay with EKVX NSCLC; 10.3 µM in the assay on SNB-75 CNS; 2.47 µM in the assay on M14 melanoma. For the same compound, the GI50 with K-562 leukemia was 2.03 µM; in the assay with BT-549 breast, 10.6 µM; in the assay on LOX IMVI melanoma, 1.69 µM; in the assay on OVCAR-8 ovarian it was 13.6 µM. Further, the TGI with NCI-H522 lung is 3.01 µM; in the assay with COLO 205 colon, 3.6 µM; in the assay on NCI/ADR-RES ovarian it was 60 µM; with EKVX NSCLC it was 30.6 µM; in the assay with SNB-75 CNS, 26.1 µM; in the assay on M14 melanoma it was 6.8 µM. Moreover, the TGI in the assay on K-562 leukemia was determined as 4.48 µM; in the assay on BT-549 breast, 22.4 µM; with LOX IMVI melanoma, 3.27 µM; in the assay on OVCAR-8 ovarian it was 29.3 µM.

With `Nc1nc2c(nnn2C2OC(CO)C(O)C2O)c(=O)[nH]1` (configuration not stated), the GI50 in the assay with NCI-H522 lung was 0.596 µM; in the assay with COLO 205 colon, 0.393 µM; in the assay with NCI/ADR-RES ovarian, 1.23 µM; with EKVX NSCLC it was 14.1 µM; in the assay on SNB-75 CNS, 5.86 µM; in the assay with M14 melanoma, 2.07 µM. Further, the GI50 was 2.06 µM in the assay with K-562 leukemia, 2.41 µM in the assay with BT-549 breast, 0.475 µM in the assay on LOX IMVI melanoma and 1.18 µM in the assay on OVCAR-8 ovarian. In addition, the TGI in the assay on NCI-H522 lung was 6.74 µM; in the assay with COLO 205 colon, 1.67 µM; in the assay with NCI/ADR-RES ovarian, > 100 µM; in the assay with EKVX NSCLC, > 100 µM; with SNB-75 CNS, > 100 µM; with M14 melanoma it was > 100 µM. The TGI in the assay with K-562 leukemia was > 100 µM; in the assay on BT-549 breast it was > 26.3 µM; in the assay with LOX IMVI melanoma, > 100 µM; in the assay on OVCAR-8 ovarian, > 100 µM.

`COC(C(=O)C(O)C(C)O)C1Cc2cc3cc(OC4CC(OC5CC(O)C(O)C(C)O5)C(O)C(C)O4)c(C)c(O)c3c(O)c2C(=O)C1OC1CC(OC2CC(O)C(OC3CC(C)(O)C(O)C(C)O3)C(C)O2)C(O)C(C)O1` (configuration not stated): the GI50 in the assay with NCI-H522 lung is 0.0112 µg/mL and 0.000596 µg/mL; with COLO 205 colon, 0.0112 µg/mL and 0.000702 µg/mL; in the assay on NCI/ADR-RES ovarian, 3.87 µg/mL and 0.0809 µg/mL; in the assay with EKVX NSCLC it was 0.0188 µg/mL and 0.000265 µg/mL; in the assay with SNB-75 CNS it was 0.0112 µg/mL and 0.000782 µg/mL; with M14 melanoma, 0.047 µg/mL and 0.0293 µg/mL. Further, the GI50 in the assay on K-562 leukemia was 0.0112 µg/mL and 0.00232 µg/mL; with BT-549 breast it was 0.015 µg/mL; in the assay with LOX IMVI melanoma, 0.00217 µg/mL; in the assay with OVCAR-8 ovarian, 0.0112 µg/mL and 0.000822 µg/mL. Moreover, the TGI in the assay with BT-549 breast was 0.0739 µg/mL; in the assay with LOX IMVI melanoma, 15 µg/mL.

A word on the GI50: it is the concentration giving 50% growth inhibition. Broadly, the TGI is the concentration giving total growth inhibition. Read a high TGI as less potent growth arrest.
